Source: patent US6787517B1 (priority 2000, dated 2004)

System: digitonin-permeabilized bovine adrenochromaffin cells
Format: cell-based

botulinum toxin type A
inhibition of Ca2+-stimulated catecholamine release: inhibition
